Results reported in patent US20080064726A1, “Pyrrolidine Derivatives” (priority 2004, published 2008).
Like-named read-outs stand apart in the source and are kept apart here.

Key:
PK test in rats = assay type: in vivo; conditions: for BA, compound measured = compound tested / AUC(0-inf): male SD rats; for BA, compound measured = compound tested: oral 3 mg/kg vs intravenous 1 mg/kg; for AUC(0-inf): rat, oral 3 mg/kg, plasma, read-out: AUC0→∞, compound measured = compound tested
Experimental: Each three animals were used for each point. Plasma was collected from the blood obtained by such a blood collection and concentration of the compound in plasma was measured using LC/MS/MS (2695, Waters and TSQ Quantum, ThermoFinnigan).
On the basis of concentration of the compound in the plasma determined by the measurement, an area under curve (AUC) of the drug concentration in plasma vs. time was calculated and, from the ratio of AUC by oral administration to AUC by intravenous injection, bioavailability (BA) was calculated. With regard to the BA value by administration of the compound of the present invention, each of concentrations in plasma of the compound X and the compound of the present invention was calculated.

[1] = PK test in cynomolgus monkey; assay type: in vivo; conditions: male cynomolgus monkeys; for BA, compound measured = compound tested: oral 3 mg/kg vs intravenous 1 mg/kg, monohydrochloride
Experimental: Male cynomolgus monkeys of four year old (K. K. Cary; the country of origin: Vietnam) were fasted for 16 hours before administration (feed was given after 4 hours from administration), a test compound dissolved in distilled water was orally administered at a dose of 3 mg/kg and blood was collected from forearm cephalic vein after 0.25, 0.5, 1, 2, 4, 8 and 24 hours from administration of the compound. In addition, cynomolgus monkeys to which no drug was administered for 7 days after the oral administration were fasted during 16 hours before administration (feed was given after 4 hours from administration), a test compound dissolved in distilled water was administered at the dose of 1 mg/kg from forearm cephalic vein and blood was collected from the forearm cephalic vein after 0.1, 0.25, 0.5, 1, 2, 4, 8 and 24 hours from administration of the compound. For each of the administrations, three animals were used. Plasma was collected by centrifugal separation of the blood obtained by such a blood collection and concentration of the compound in the plasma was measured by LC/MS/MS (2695, Waters and TSQ Quantum, ThermoFinnigan).

[2] = molecular target: T1, DPP-IV purified from pig kidney (Sus scrofa, UniProt P22411); assay: Test for determination of DPP-IV inhibitory activity (Gly-Pro-AMC fluorescence); assay type: biochemical; conditions: room temperature, 60 minutes, 0.05 mM Gly-Pro-AMC
T1 construct: DPP-rIV purified from pig kidney (Sigma); purchased Sigma; host or cells: pig kidney tissue
Experimental: Procedure of DPP-IV activity measurement is as follows. The reaction was performed in a 96-well plate.
Reaction solutions (100 μl/well) obtained by adding a test substance at various concentrations to a solution containing 50 mM of Tris HCl, 150 mM of sodium chloride, a 0.1% triton X-100, 0.3 mU/mI of DPP-rIV purified from pig kidney (Sigma), and 0.05 mM of Gly-Pro-AMC (Bachem) were incubated at a room temperature for 60 minutes, and then fluorescence intensities (Excitation: 355 nm, Emission: 460 nm) of the reaction solutions were measured (ARVO, Perkin Elmer). The data of 3 Wells under the same conditions were averaged.
The inhibition in the test group, relative to the solvent-added group was calculated, and the IC50 value thereof was obtained through logistic analysis.

plasma DPP-IV activity = molecular target: T2, plasma DPP-IV activity (Mus musculus, UniProt P28843); assay: Test for DPP-IV inhibiting activity duration in mice (plasma DPP-IV activity after oral administration); assay type: in vivo; conditions: male ICR mice, 10 mg/kg oral
T2 construct: from tissue; host or cells: plasma of male ICR mice after oral dosing
Experimental: Male ICR mice (Nippon SLC) were grouped into a test group and a control group of 5 subjects each. A test compound (10 mg/kg) was dissolved in purified water, and orally administered. Purified water alone was orally administered to the mice of the control group. One half and 12 hours after the administration, the blood was collected from each mouse through the orbital venous plexus thereof. The collected blood was immediately centrifuged to isolate the plasma, and the DPP-IV activity of the plasma was measured.
The process of plasma DPP-IV activity determination was as follows: The reaction was performed in a 96-well plate. 5 μl of the collected plasma was added to an aqueous solution (95 μl/well) comprises 25 mM Tris-HCl, 140 mM sodium chloride, 10 mM potassium-chloride, 1% bovine serum albumin, and 0.01 mM Gly-Pro-AMC (Bachem), and incubated at room temperature for 20 minutes. The fluorescence intensity (excitation 355 nm/emission 460 nm) of each well was measured (ARVO, Perkin Elmer).
The fluorescent intensity of the well, to which was added the plasma collected from the control group, was 100%. Based on it, the DPP-IV activity of the plasma collected from the test compound administered mice was calculated, and the activity difference between the control group and the test group was obtained. This indicated the inhibition in the test group.

[3] = 0.5 hour, read-out: Inhibitory Rate after 0.5 Hour from Administration
[4] = 12 hours, read-out: Inhibitory Rate after 12 Hours from Administration

T2 sequence (P28843 38-760 limits assumed): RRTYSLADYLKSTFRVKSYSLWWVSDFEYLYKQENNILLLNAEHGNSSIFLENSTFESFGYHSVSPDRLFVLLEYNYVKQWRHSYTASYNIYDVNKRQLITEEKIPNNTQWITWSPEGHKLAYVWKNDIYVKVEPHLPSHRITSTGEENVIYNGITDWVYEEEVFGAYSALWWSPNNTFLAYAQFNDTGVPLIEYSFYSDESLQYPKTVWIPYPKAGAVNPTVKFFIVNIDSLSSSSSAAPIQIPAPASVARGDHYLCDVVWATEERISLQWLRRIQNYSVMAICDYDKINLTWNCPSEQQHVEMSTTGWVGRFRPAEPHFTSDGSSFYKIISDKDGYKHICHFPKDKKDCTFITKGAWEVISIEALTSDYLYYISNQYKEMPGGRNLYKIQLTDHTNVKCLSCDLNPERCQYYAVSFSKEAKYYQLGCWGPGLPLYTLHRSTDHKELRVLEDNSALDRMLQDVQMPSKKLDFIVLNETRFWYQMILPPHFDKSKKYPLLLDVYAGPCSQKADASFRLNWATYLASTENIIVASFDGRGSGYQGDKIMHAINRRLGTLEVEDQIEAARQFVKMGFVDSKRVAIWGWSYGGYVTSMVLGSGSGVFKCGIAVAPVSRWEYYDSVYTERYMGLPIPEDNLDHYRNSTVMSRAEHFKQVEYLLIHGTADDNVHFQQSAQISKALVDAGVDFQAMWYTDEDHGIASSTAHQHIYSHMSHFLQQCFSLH
T1 sequence (P22411 whole entry): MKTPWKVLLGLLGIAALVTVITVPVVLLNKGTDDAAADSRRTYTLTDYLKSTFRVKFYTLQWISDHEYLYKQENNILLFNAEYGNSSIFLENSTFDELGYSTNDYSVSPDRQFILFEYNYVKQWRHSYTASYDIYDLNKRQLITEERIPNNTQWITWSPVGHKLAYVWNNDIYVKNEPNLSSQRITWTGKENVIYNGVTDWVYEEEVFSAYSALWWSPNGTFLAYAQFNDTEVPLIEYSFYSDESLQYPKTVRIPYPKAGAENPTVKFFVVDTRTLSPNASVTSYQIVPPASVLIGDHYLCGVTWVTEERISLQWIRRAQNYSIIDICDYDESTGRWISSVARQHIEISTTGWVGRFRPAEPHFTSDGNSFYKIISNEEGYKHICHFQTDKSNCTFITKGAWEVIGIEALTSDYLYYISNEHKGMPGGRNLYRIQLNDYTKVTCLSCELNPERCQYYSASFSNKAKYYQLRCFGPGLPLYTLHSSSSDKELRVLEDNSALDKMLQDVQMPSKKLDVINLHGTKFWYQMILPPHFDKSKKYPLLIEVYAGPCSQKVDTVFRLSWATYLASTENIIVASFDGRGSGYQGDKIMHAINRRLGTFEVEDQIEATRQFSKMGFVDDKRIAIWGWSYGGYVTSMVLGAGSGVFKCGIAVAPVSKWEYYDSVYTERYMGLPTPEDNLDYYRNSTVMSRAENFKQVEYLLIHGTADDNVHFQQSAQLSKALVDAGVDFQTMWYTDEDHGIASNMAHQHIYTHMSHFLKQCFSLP

| BA, compound measured = compound tested (PK test in rats) | AUC(0-inf) (PK test in rats) | AUC(0-inf) ([1]; cynomolgus monkey, oral 3 mg/kg, plasma, read-out: AUC0→∞, compound measured = compound tested) | BA, compound measured = compound tested ([1]; listed as compound X) | BA, compound measured = compound tested [1] | IC50 [2] | Increase of AUC (sum of tested compound and compound X in plasma) compared with AUC when compound X was administered (PK test in rats; rats, oral administration) | inhibition at 10 mg/kg (plasma DPP-IV activity; [3]) | inhibition at 10 mg/kg (plasma DPP-IV activity; [4]) | AUC0→∞, compound measured = compound tested ([1]; oral 3 mg/kg, plasma) | Structure (SMILES) |
| --- | --- | --- | --- | --- | --- | --- | --- | --- | --- | --- |
| 16% | 138 ng·h/mL | 278 ± 104 ng·h/mL | 13% | 13 ± 5% | 15 nM | – | – | – | – | CC1(NCC(=O)N2C[C@@H](F)C[C@H]2C#N)CCN(C(=O)CO)CC1.Cl [Compound X, (2S,4S)-4-fluoro-1-{[(1-glycoloyl-4-methylpiperidin-4-yl)amino]acetyl}pyrrolidine-2-carbonitrile monohydrochloride] |
| 77% | 43 ng·h/mL | – | – | – | 15 nM | about fourfold | 95% | 84% | not detected | CC(=O)OCC(=O)N1CCC(C)(NCC(=O)N2C[C@@H](F)C[C@H]2C#N)CC1 [Example 1, 2-[4-({2-[(2S,4S)-2-cyano-4-fluoropyrrolidin-1-yl]-2-oxoethyl}amino)-4-methylpiperdin-1-yl]-2-oxoethyl acetate monofumarate] |
| – | – | – | – | – | – | – | 90% | 33% | – | COCC(=O)N1CCC(NCC(=O)N2CCC[C@H]2C#N)CC1 [Compound Y] |
